In patent US4146614A, “Threonyl-valyline leucine containing peptides and pharmaceutical compositions” (State of Michigan, priority 1977, dated 1979):
Non-standard residues stand in square brackets, D forms with d. Residues, ends and D or L forms follow the SMILES beside them. *: point of attachment. Bn = c1ccc(C*)cc1

Legend:
[1] = system: tryptophan uptake; experiment: Tryptophan uptake inhibition (tryptophan uptake method)
Procedure: Each of the resultant 10 fractions is assayed according to the tryptophan uptake method described in Biological Psychiatry, Vol. 7, No. 1, p. 53, (1973) as an indication of the amount of anti-S protein factor therein.
Tryptophan uptake are also conducted for the tested polypeptides. The tryptophan uptake inhibition is determined at 10 minutes.

[2] = system: alpha-helical S-protein; experiment: Intracranial self-stimulation (bar pressing) in rats given alpha-helical S-protein; assay type: in vivo; conditions: for Bar Presses Restoration %: alpha-helical S-protein intercisternally, polypeptide 0.2 mg/kg intramuscularly
[3] = system: S-protein of schizophrenics; experiment: Conversion of alpha-helical S-protein to random chain conformation; assay type: biochemical, human
[4] = Activity useful for alleviating the symptoms of schizophrenia (test not specified)
Procedure: Following essentially the same procedures as described above, N-acetyl-tyrosylthreonylvalylleucine, prolylthreonylvalylleucylprolylglycine are tested to determine their effect on rats which have been administered the alpha-helical S-protein.

In the case of CC(=O)N[C@H](C(=O)N[C@H](C(=O)N[C@@H](CC(C)C)C(=O)O)C(C)C)[C@@H](C)O [N-Acetyl-threonylvalylleucine] (Ac-Thr-Val-Leu-OH), the “Tryptophan Uptake Inhibition %” value ([1]; determined at 10 minutes) is reported as 20.2% and the “Bar Presses Restoration %” value ([2]; rats) is reported as 100%.

With CC(C)C[C@H](NC(=O)[C@@H](NC(=O)[C@@H](NC(=O)[C@@H]1CCCN1C(=O)[C@@H](N)Cc1ccccc1)[C@@H](C)O)C(C)C)C(=O)N1CCC[C@H]1C(=O)N[C@@H](Cc1ccccc1)C(=O)O [Phenylalanylprolylthreonylvallylleucylprolyl phenylalanine] (H-FPTVLPF-OH) the “Tryptophan Uptake Inhibition %” value ([1]; determined at 10 minutes) was 39.5% and the “Bar Presses Restoration %” value ([2]; rats) was 100%.

For CC(C)C[C@H](NC(=O)[C@@H](NC(=O)[C@@H](N)[C@@H](C)O)C(C)C)C(=O)N[C@H](C)C(=O)O [L-Threonyl-L-valyl-L-leucyl-D-alanine] (H-TVL[dA]-OH), the “tryptophan uptake activity (in words)” value [1] was “without significant tryptophan uptake activity” and the “Tryptophan Uptake Inhibition %” value ([1]; determined at 10 minutes) was 2%.

For CC(C)C[C@H](NC(=O)[C@@H](NC(=O)[C@@H](N)[C@@H](C)O)C(C)C)C(N)=O [Threonylvalylleucinamide] (H-Thr-Val-Leu-NH2), the “Tryptophan Uptake Inhibition %” value ([1]; determined at 10 minutes) was 21.6% and the “Bar Presses Restoration %” value ([2]; rats) was 90%.

For CC(=O)N[C@H](C(=O)N[C@H](C(=O)N[C@@H](CC(C)C)C(N)=O)C(C)C)[C@@H](C)O [N-Acetyl-threonylvalylleucinamide] (Ac-Thr-Val-Leu-NH2), the “Tryptophan Uptake Inhibition %” value ([1]; determined at 10 minutes) was 56.5% and the “Bar Presses Restoration %” value ([2]; rats) was 100%.

For CC(C)C[C@@H](NC(=O)[C@@H](NC(=O)[C@@H](N)[C@@H](C)O)C(C)C)C(=O)O [L-Threonyl-L-valyl-D-leucine] (H-Thr-Val-[dL]-OH), the “Tryptophan Uptake Inhibition %” value ([1]; 15 min.) was 18%, the “Tryptophan Uptake Inhibition %” value ([1]; 30 min.) was 21% and the “Tryptophan Uptake Inhibition %” value ([1]; determined at 10 minutes) was 12%.

With “N-α-Acetyl-Threonylvalyleucine, methyl ester” the “Tryptophan Uptake Inhibition %” value ([1]; determined at 10 minutes) was 24.2%.

With CC(C)C[C@H](NC(=O)[C@@H](NC(=O)[C@@H](NC(=O)[C@@H]1CCCN1)[C@@H](C)O)C(C)C)C(=O)N1CCC[C@H]1C(=O)NCC(=O)O [Prolylthreonylvalylleucylprolylgylcine] (H-PTVLPG-OH) the “Tryptophan Uptake Inhibition %” value ([1]; determined at 10 minutes) was 44.2% and the “restoration of the bar pressing activity of the rats (in words)” value ([2]; rats administered the alpha-helical S-protein) was “restores the bar pressing activity of the rats”.

In the case of CC[C@H](C)[C@H](NC(=O)[C@@H](NC(=O)[C@@H](N)[C@@H](C)O)C(C)C)C(=O)O [Threonylvalylisoleucine] (H-Thr-Val-Ile-OH), the “Tryptophan Uptake Inhibition %” value ([1]; determined at 10 minutes) is reported as 5.6% and the “Bar Presses Restoration %” value ([2]; rats) is reported as 41%.

For CC(C)C[C@H](NC(=O)[C@@H](NC(=O)[C@@H](NC(=O)CN)[C@@H](C)O)C(C)C)C(=O)O [Glycylthreonylvalylleucine] (H-GTVL-OH), the “Tryptophan Uptake Inhibition %” value ([1]; determined at 10 minutes) was 24.3% and the “Bar Presses Restoration %” value ([2]; rats) was 100%.

For CC(C)C[C@H](NC(=O)[C@@H](NC(=O)[C@@H](N)[C@@H](C)O)C(C)C)C(=O)O [Threonylvalylleucine] (H-Thr-Val-Leu-OH), the “activity against the S-protein of schizophrenics (conformation change, in words)” value [3] was “the alpha-helical conformation of the S-protein is converted to the random form”, the “Tryptophan Uptake Inhibition %” value ([1]; determined at 10 minutes) was 19.8% and the “period of effectiveness in counteracting the effect of the S-protein” value ([2]; rats) was “of short duration”. The “Bar Presses Restoration %” value ([2]; rats) was 85%.

In the case of NCC(=O)NCC(=O)NCC(=O)O [Glycylglycylglycine, reference compound] (H-Gly-Gly-Gly-OH), the “Tryptophan Uptake Inhibition %” value ([1]; determined at 10 minutes) is reported as 0% and the “Bar Presses Restoration %” value ([2]; rats) is reported as 3%.

For CC(C)C[C@H](NC(=O)[C@@H](NC(=O)[C@@H](NC(=O)[C@@H](C)N)[C@@H](C)O)C(C)C)C(=O)O [D-Alanyl-L-threonyl-L-valyl-L-leucine] (H-[dA]TVL-OH), the “duration of tryptophan uptake inhibition (in words)” value ([1]; 10, 15 and 30 minutes) was “after a period of time the inhibition of tryptophan uptake may be diminished”, the “Tryptophan Uptake Inhibition %” value ([1]; 15 min.) was 16% and the “Tryptophan Uptake Inhibition %” value ([1]; 30 min.) was 0%. For the same molecule, the “Tryptophan Uptake Inhibition %” value ([1]; determined at 10 minutes) was 15%.

With CC(C)C[C@H](NC(=O)[C@@H](NC(=O)[C@@H](N)[C@@H](C)OCc1ccccc1)C(C)C)C(N)=O [O-Benzyl-threonylvalylleucinamide] (H-Thr(Bn)-Val-Leu-NH2) the “Tryptophan Uptake Inhibition %” value ([1]; determined at 10 minutes) was 0% and the “Bar Presses Restoration %” value ([2]; rats) was “toxic”.

With CC(C)C[C@H](NC(=O)[C@@H](NC(=O)[C@@H](N)[C@@H](C)O)C(C)C)C(=O)N[C@@H](CCCNC(=N)N)C(=O)O [threonylvalylleucylarginine] (H-TVLR-OH) the “activity useful for alleviating the symptoms of schizophrenia (in words)” value [4] was “exhibiting activity useful for alleviating the symptoms of schizophrenia”.
